Experimental data taken from patent US7030096B1, “Method of enhancing relaxation of penile smooth muscle by introduction of DNA encoding maxi-K potassium channel protein” (Albert Einstein College of Medicine of Yeshiva University, priority 1997, dated 2006).
Read-outs that look alike come from different tables or passages of the source. Where no end group is shown, it is not given here.

Key:
[1] = test system: KATP channel; conditions: Table 4; cited from earlier work
[2] = test system: corporal smooth muscle; conditions: cited from earlier work
[3] = test system: L-type Ca^2+ channel; conditions: cited from earlier work
[4] = test system: isolated human corporal tissue strips; conditions: cited from earlier work
[5] = test system: isolated human corporal tissue strips; format: cell-based
[6] = target: T1, maxi-K channel (Homo sapiens, UniProt Q12791); format: cell-based
T1 sequence (Q12791 whole entry): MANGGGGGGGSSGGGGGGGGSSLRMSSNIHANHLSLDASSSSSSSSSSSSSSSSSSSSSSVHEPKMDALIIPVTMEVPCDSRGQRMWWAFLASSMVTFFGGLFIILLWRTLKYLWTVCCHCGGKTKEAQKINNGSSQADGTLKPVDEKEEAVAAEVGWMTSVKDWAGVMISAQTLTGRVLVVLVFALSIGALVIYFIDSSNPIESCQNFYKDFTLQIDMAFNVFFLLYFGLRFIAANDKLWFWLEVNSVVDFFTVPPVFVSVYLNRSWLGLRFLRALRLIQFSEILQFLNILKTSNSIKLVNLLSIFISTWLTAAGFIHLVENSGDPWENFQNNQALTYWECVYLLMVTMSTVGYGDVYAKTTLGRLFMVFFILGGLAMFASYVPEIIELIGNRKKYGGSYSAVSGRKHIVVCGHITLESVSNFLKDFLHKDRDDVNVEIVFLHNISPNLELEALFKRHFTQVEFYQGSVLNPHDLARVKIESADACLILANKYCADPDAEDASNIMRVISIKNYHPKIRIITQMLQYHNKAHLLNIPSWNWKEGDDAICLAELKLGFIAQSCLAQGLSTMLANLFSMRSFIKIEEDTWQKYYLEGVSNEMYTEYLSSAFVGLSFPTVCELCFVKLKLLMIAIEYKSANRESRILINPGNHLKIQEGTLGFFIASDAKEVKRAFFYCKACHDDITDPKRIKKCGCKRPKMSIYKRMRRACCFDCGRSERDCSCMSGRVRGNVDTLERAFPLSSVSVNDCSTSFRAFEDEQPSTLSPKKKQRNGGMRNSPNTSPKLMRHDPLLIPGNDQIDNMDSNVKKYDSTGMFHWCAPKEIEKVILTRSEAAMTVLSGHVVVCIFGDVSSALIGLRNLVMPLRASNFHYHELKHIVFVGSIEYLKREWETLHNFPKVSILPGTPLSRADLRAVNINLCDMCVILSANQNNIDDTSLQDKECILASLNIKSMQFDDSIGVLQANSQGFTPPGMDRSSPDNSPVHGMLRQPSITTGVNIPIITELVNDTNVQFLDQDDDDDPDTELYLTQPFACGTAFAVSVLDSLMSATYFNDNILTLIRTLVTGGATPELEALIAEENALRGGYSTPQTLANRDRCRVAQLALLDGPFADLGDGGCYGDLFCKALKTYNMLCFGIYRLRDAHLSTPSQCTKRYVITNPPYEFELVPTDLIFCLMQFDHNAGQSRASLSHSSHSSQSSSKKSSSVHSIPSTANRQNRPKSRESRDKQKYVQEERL

[7] = target: KCa channel (Homo sapiens, UniProt Q12791); conditions: Table 4; cited from earlier work
Sequence of KCa channel (Q12791 whole entry): as above

[8] = test system: cultured human corporal smooth muscle cells; conditions: preincubation with 500 nM PGE1, cited from earlier work
[9] = target: T1, maxi-K channel; conditions: all four recording modes; cited from earlier work
[10] = test system: cultured human corporal smooth muscle cells; test: Resting and ET-1-induced intracellular calcium in fura-2-loaded cultured cells; format: cell-based; conditions: transfection with hSlo cDNA or preincubation with PGE1 (500 nM)
Description: Urol., 155:[…], 1996). This decrease is indistinguishable from the decrease seen in the absence of extracellular Ca^2+ (in 2 mM EGTA), or when cells are preincubated with either nifedipine (Zhao and Christ, J. Urol., 154:1571-79, 1995) or verapamil, both of which are blockers of the L-type voltage-dependent calcium channel. [table]

[11] = test system: monkeys and humans; conditions: cited from earlier work
[12] = test system: precontracted corporal tissue strips; conditions: from both animals and humans; cited from earlier work

COc1ccc(Cl)cc1C(=O)NCCc1ccc(S(=O)(=O)NC(=O)NC2CCCCC2)cc1 [Glibenclamide, glibenclamide]
Channel Type Affected: KATP [1]: KATP decreases
Effect on Smooth Muscle Tone ([2]; Table 4): increased tone

[Cl-].[K+] [KCl]
Channel Type Affected: KATP [1]: KATP increases
Effect on Smooth Muscle Tone ([2]; Table 4): modulates increase

O=[N+]([O-])OCC(CO[N+](=O)[O-])O[N+](=O)[O-] [NTG, nitroglycerine]
Channel Type Affected: L-type Ca^2+ [3]: decreases
expected percent relaxation response elicited by 100 nM nitroglycerine [4]: 50.1%
percent relaxation response elicited by 100 nM nitroglycerine [5]: 20.3%±3.2
Channel activity increased [6]: YES
maxi-K channel activity (attached patch recording mode) [6]: increase in maxi-K channel activity
Effect on Smooth Muscle Tone [2]: decreased tone

CNC[C@H](O)c1cccc(O)c1 [PE, phenylephrine]
Channel Type Affected: KCa [7]: KCa increases
Effect on Smooth Muscle Tone ([2]; Table 4): modulates increase

CCCCC[C@H](O)/C=C/[C@H]1[C@H](O)CC(=O)[C@@H]1CCCCCCC(=O)O [PGE1, prostaglandin E1]
Channel Type Affected: KCa [7]: KCa increases
decrease in peak amplitude of the ET-1-induced (50 nM) calcium transient [8]: ≈ 40%
peak amplitude of the ET-1-induced (50 nM) calcium transient above baseline ([8]; control value 161.5±19.5 nM): 102.6 ± 9.5 nM
Channel activity increased ([6]; 100 μM NTG or 30 nM–30 μM PGE1): YES
Effect on Smooth Muscle Tone ([2]; Table 4): decreased tone
activity of the maxi-K channel [9]: concentration-dependent increase
ET-1-induced calcium response decreased [10]: YES

CC[N+](CC)(CC)CC [TEA, tetraethylammonium]
Channel Type Affected: KCa [7]: KCa decreases
PE-induced contraction increased [5]: YES
Relaxation response decreased [5]: YES
Resting corporal smooth muscle tone increased [5]: YES
effect on NTG-induced relaxation response (100 nM) [5]: significant attenuation
Effect on Smooth Muscle Tone [2]: increased tone

CC1(C)Oc2ccc(C#N)cc2C(N2CCCC2=O)C1O (stereo not shown) [cromakalim]
effect when injected intracavernosally [11]: elicit an erection
effect on precontracted corporal tissue strips [12]: relax

CC1(C)Oc2ccc(C#N)cc2[C@@H](N2CCCC2=O)[C@@H]1O [lemakalim]
effect when injected intracavernosally [11]: elicit an erection
effect on precontracted corporal tissue strips [12]: relax

O=C(NCCO[N+](=O)[O-])c1cccnc1 [nicorandil]
effect when injected intracavernosally [11]: elicit an erection
effect on precontracted corporal tissue strips [12]: relax

CC(N/C(=N\C#N)Nc1ccncc1)C(C)(C)C (stereo not shown) [pinacidil]
effect when injected intracavernosally [11]: elicit an erection
effect on precontracted corporal tissue strips [12]: relax
Channel Type Affected: KATP [1]: KATP increases
Effect on Smooth Muscle Tone ([2]; Table 4): decreased tone

endothelin-1 (CSCSSLMDKECVYFCHLDIIW; ends and bridges not checked; cysteine pairing not given here; UniProt P05305 53-73, looked up) [ET-1]
Channel Type Affected: L-type Ca^2+ ([3]; Table 4): increases
Effect on Smooth Muscle Tone ([2]; Table 4): increased tone
